{
  "source": "patent US8426338B2",
  "about": "“Chelating agents for micronutrient fertilisers” (Adelaide Research and Innovation Pty Ltd, priority 2005, dated 2013)",
  "key": {"Canola": {"tested_on": "Canola", "assay": "Pot experiment: Zn fertiliser uptake by canola on alkaline and calcareous soils", "format": "in vivo, Canola (variety Pinnacle)", "conditions": "21 days growth, chelate rates PEI 0.043, EDTA 0.37 μM/g soil, FIG. 1", "from_the_text": "A pot experiment was designed to test the availability of Zn to Canola when applied to calcareous and alkaline soils either as ZnSO4.7H2O or chelated with PEI or EDTA.\nSoil samples were collected from field sites known to be Zn responsive at Streaky Bay, South Australia and Birchip, Victoria (Table 1). Topsoils from each location were collected, oven dried and passed through a 2 mm sieve. The ^65Zn labelled experimental fertilisers were mixed with 20 g of soil, which was banded between 100 g of the unfertilised bulk soil. Total nutrient application equated to (μg/g soil) P 60, N 27, applied as TGMAP, and Zn 0.2 as ZnSO4.7H2O. Chelate rates were based on the concentrations required to complex 100% of the Zn in the fertiliser solution. Rates varied depending on the stoichiometry of the Zn-ligand complexes. GEOCHEM was used to predict the degree of chelation in the EDTA fertiliser solution. […]\nTwo pre-germinated Canola seeds (variety Pinnacle) were transferred to each pot. […] Plant digests were analysed for ^65Zn by gamma spectroscopy and for total nutrient contents by ICP-OES.\nData for shoot dry weight, shoot nutrient concentrations and Zn fertiliser uptake were analysed by analysis of variance (ANOVA). Significance between means was determined using the Least Significant Difference (LSD) test."}, "canola roots": {"tested_on": "canola roots", "assay": "Uptake of 65Zn from ice-cold solutions into canola roots (apoplast and symplast)", "format": "in vivo", "conditions": "30 minutes, FIG. 4", "method": "Each treatment was replicated in triplicate. After 30 minutes the canola roots were removed from the uptake solutions and rinsed with MilliQ water. Those roots used to measure symplastic absorption of Zn were transferred to ice-cold desorption solutions for 30 minutes in order to desorb apoplastically bound Zn. Desorption solutions contained 2 mM Na-MES (pH 6.0), 5 mM CaCl2 and 60 μM ZnCl2. Canola plants were separated into roots and shoots, blotted dry and weighed. Roots were transferred into radioactivity counting vials, to which 4 ml of 5M HNO3 was added. Samples were left overnight to solubilise the cell contents before the ^65Zn contents of roots were determined by gamma spectroscopy."}, "Canola seedlings": {"tested_on": "Canola seedlings", "conditions": "1 μM ZnSO4; 24-hour uptake; FIG. 6, FIG. 7", "description": "Canola seedlings (Brassica napus var. Pinnacle) were pre-germinated on filter paper moistened with deionised water. On day 6, the seedlings were transferred to complete nutrient solution and moved into the glasshouse. The nutrient solution contained Ca (3.55 mM), Mg (1.45 mM), NO3^− (8.1 mM), H2PO4^− (0.2 mM), Cl (10 μM), Na (1.1 mM), K (1.2 mM), SO4 (1.45 mM), H3BO3 (30 μM), MoO4^2− (0.2M), FeEDDHA (25 μM), Mn (10 μM), Zn (1 μM), Cu (1 μM), buffered at pH 6.0 with 2 mM MES (2-morpholinoethanesulphonic acid, 50% as potassium salt) (Kupper et al, 2000). After 14 days, the canola plants, three per pot, were transferred to pre-treatment solution for 24 hours. Pre-treatment solution contained 2 mM NaMES (pH 6.0) and 0.5 mM CaCl2. Following pre-treatment, the plants were used in the ^65Zn uptake experiments.\nPre-treated canola seedlings were transferred to uptake solutions containing 2 mM KMES (pH 6.0), 0.5 mM CaCl2 and 1 μM ZnSO4 as either the metal salt or chelated with EDTA (control) or the eight forms of PEI described above. […]\nAfter a 24-hour uptake period, canola shoots were harvested, weighed and digested in concentrated HNO3 at 140° C. Digest solutions were transferred to radioactivity counting vials for ^65Zn measurement by gamma spectroscopy. […]"}},
  "data": [
    {"smiles": "O=C(O)CN(CCN(CC(=O)O)CC(=O)O)CC(=O)O", "note": "[EDTA, ethylenediaminetetraacetic acid]", "values": [
      {"measurement": "Total Zn uptake by canola", "setting": "Canola; Birchip Sodosol", "result": "ineffective"},
      {"measurement": "Total Zn uptake by canola", "setting": "Canola; Streaky Bay calcareous grey sandy loam", "result": "ineffective"},
      {"measurement": "Uptake of Zn into the root symplast", "setting": "canola roots; 10 μM ZnCl2 chelated by 10 μM EDTA or 5 μM PEI", "result": "not readily absorbed"},
      {"measurement": "Uptake of Zn into the root apoplast", "setting": "canola roots; 10 μM ZnCl2 chelated by 10 μM EDTA", "result": "not readily absorbed"},
      {"measurement": "Zn absorption and translocation to canola shoots (Zn transfer coefficient)", "setting": "Canola seedlings", "result": "not readily absorbed and translocated to canola shoots"}
    ]}
  ]
}
